Measurements: ChEMBL document CHEMBL3046003, “Synthesis and antifungal activities of novel 5-amino-6-arylamino-1H-pyrazolo[3,4-d]pyrimidin-4(5H)-one derivatives” (2008)

Experiments:
Type in all cases: functional
Conditions in all cases: read-out: GI
[1] = test system: Fusarium graminearum; assay: Antifungal activity against Fusarium graminearum assessed as growth inhibition at 50 mg/L
[2] = test system: Pyricularia oryzae; assay: Antifungal activity against Magnaporthe oryzae assessed as growth inhibition at 50 mg/L
[3] = test system: Sclerotinia sclerotiorum; assay: Antifungal activity against Sclerotinia sclerotiorum assessed as growth inhibition at 50 mg/L
[4] = test system: Botrytis cinerea; assay: Antifungal activity against Botryotinia fuckeliana assessed as growth inhibition at 10 mg/L
[5] = test system: Botrytis cinerea; assay: Antifungal activity against Botryotinia fuckeliana assessed as growth inhibition at 50 mg/L
[6] = test system: Sclerotinia sclerotiorum; assay: Antifungal activity against Sclerotinia sclerotiorum assessed as growth inhibition at 10 mg/L

| SMILES | inhibition of growth at 50 µg/mL [1] [%] | inhibition of growth at 50 µg/mL [2] [%] | inhibition of growth at 50 µg/mL [3] [%] | inhibition of growth at 10 µg/mL [4] [%] | inhibition of growth at 50 µg/mL [5] [%] | inhibition of growth at 10 µg/mL [6] [%] |
| --- | --- | --- | --- | --- | --- | --- |
| CSc1nn(-c2ccccc2)c2nc3n(-c4cccc(Cl)c4)cnn3c(=O)c12 | 74 | 57 | 100 | 71 | 99 | 82 |
| CSc1nn(-c2ccccc2)c2nc3n(-c4cccc(C)c4)cnn3c(=O)c12 | 50 | 70 | 98 | 74 | 97 | 73 |
| CSc1nn(-c2ccccc2)c2nc(Nc3ccc(F)cc3)n(N)c(=O)c12 | 20 | 43 | 94 | 9 | 45 | 72 |
| CSc1nn(-c2ccccc2)c2nc(Nc3ccccc3F)n(N)c(=O)c12 | 51 | 62 | 97 | 69 | 93 | 73 |
| CSc1nn(-c2ccccc2)c2nc(Nc3cccc(F)c3)n(N)c(=O)c12 | 43 | 43 | 96 | 56 | 87 | 75 |
| Nn1c(Nc2ccc(F)cc2)nc2c(c(SCc3ccccc3)nn2-c2ccccc2)c1=O | 34 | 29 | 83 | 12 | 55 | 52 |
| Nn1c(Nc2ccccc2F)nc2c(c(SCc3ccccc3)nn2-c2ccccc2)c1=O | 40 | 14 | 71 | 18 | 64 | 33 |
| Nn1c(Nc2cccc(F)c2)nc2c(c(SCc3ccccc3)nn2-c2ccccc2)c1=O | 46 | 14 | 82 | 20 | 69 | 40 |
| CSc1nn(-c2ccccc2)c2nc(Nc3ccccc3)n(N)c(=O)c12 | 14 | 36 | 84 | 3 | 13 | 51 |
| Nn1c(Nc2ccccc2)nc2c(c(SCc3ccccc3)nn2-c2ccccc2)c1=O | 29 | 50 | 72 | 12 | 60 | 31 |
| CSc1nn(-c2ccccc2)c2nc(Nc3cccc(Cl)c3)n(N)c(=O)c12 | 57 | 96 | 98 | 73 | 99 | 76 |
| CSc1nn(-c2ccccc2)c2nc(Nc3cccc(C)c3)n(N)c(=O)c12 | 46 | 14 | 86 | 36 | 71 | 52 |
| CSc1nn(-c2ccccc2)c2nc3n(-c4ccc(F)cc4)cnn3c(=O)c12 | 49 | 9 | 93 | 45 | 71 | 70 |
| CSc1nn(-c2ccccc2)c2nc3n(-c4ccccc4F)cnn3c(=O)c12 | 26 | 5 | 50 | 31 | 60 | 19 |
| CSc1nn(-c2ccccc2)c2nc3n(-c4cccc(F)c4)cnn3c(=O)c12 | 74 | 29 | 100 | 70 | 91 | 83 |
| O=c1c2c(SCc3ccccc3)nn(-c3ccccc3)c2nc2n(-c3ccc(F)cc3)cnn12 | 37 | 43 | 75 | 30 | 67 | 32 |
| O=c1c2c(SCc3ccccc3)nn(-c3ccccc3)c2nc2n(-c3ccccc3F)cnn12 | 37 | 14 | 96 | 27 | 60 | 75 |
| O=c1c2c(SCc3ccccc3)nn(-c3ccccc3)c2nc2n(-c3cccc(F)c3)cnn12 | 34 | 0 | 29 | 5 | 29 | 5 |
| CSc1nn(-c2ccccc2)c2nc3n(-c4ccccc4)cnn3c(=O)c12 | 66 | 80 | 100 | 70 | 99 | 83 |
| O=c1c2c(SCc3ccccc3)nn(-c3ccccc3)c2nc2n(-c3ccccc3)cnn12 | 60 | 29 | 93 | 49 | 73 | 67 |
| c1ccc2[nH]c(-c3cscn3)nc2c1 [THIABENDAZOLE] | 100 | 87 | 100 | – | 100 | – |
